Test results as given in patent US9017645B2, “Homoglutamic acid derivatives” (Piramal Imaging SA, priority 2009, dated 2015).

Test system: H460 cells
Assay: Cell-competition experiment: uptake of radiolabeled glutamic acid derivative into tumor cells
Format: cell-based, human
Settings: competitor 1 mM and 0.1 mM, 30 min incubation in PBS
Description: FIG. 7: Biological activity of (2S)-2-Amino-5-(4-cyano-3-fluorobenzyl)hexanedioic acid in a cell-competition-experiment (H460 cells, 30 min incubation with radiolabeled glutamic acid derivative in PBS-Puffer, concentration of competitor 1 mM and 0.1 mM).
The ability of (2S)-2-Amino-5-(4-cyano-3-fluorobenzyl)hexanedioic acid to compete with uptake of glutamic acid derivatives into tumor cells was examined. Therefore, tumor cells were co-incubated with a radiolabeled glutamic acid derivative and (2S)-2-Amino-5-(4-cyano-3-fluorobenzyl)hexanedioic acid. This compounds was used in large excess to the tracer. Two concentrations were examined (1 mM an 0.1 mM).

`N#Cc1ccc(CC(CC[C@H](N)C(=O)O)C(=O)O)cc1F` (stereo partly drawn) [(2S)-2-Amino-5-(4-cyano-3-fluorobenzyl)hexanedioic acid] was tested, and the “uptake of radiolabeled glutamic acid derivative into tumor cells (competition)” value was “strongly reduces the uptake”.
